The values below come from paper PMC5147005 (The Journal of Cell Biology, 2016).

What is called Kd is the constant that tells how readily two partners part at equilibrium. By stoichiometry N is commonly meant the number of molecules, sites or subunits per partner or assembly.

For data set [1], the target named is T1, MFN1-MGD (minimal GTPase domain of human MFN1) (Homo sapiens, UniProt Q8IWA4, DEL365-693).
T1 sequence (Q8IWA4 1-364): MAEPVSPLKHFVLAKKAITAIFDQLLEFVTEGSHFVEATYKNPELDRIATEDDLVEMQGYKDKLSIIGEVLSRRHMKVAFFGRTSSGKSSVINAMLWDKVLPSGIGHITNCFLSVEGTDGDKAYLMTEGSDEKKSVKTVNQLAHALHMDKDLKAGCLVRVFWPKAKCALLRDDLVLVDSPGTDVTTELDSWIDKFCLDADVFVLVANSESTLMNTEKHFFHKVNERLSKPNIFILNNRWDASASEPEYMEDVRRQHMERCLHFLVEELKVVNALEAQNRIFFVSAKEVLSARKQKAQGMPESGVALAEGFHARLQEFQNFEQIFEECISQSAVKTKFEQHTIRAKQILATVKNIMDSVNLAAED
T1 sequence (Q8IWA4 694-741): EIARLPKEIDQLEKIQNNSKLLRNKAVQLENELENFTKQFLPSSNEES
In words: isothermal titration calorimetry. The format is binding. In general terms: Isothermal titration calorimetry measures the heat released or taken up as one component is titrated into another.

Data set [2] concerns the molecule itself. As to the kind of experiment: AUC.

Regarding `Nc1nc2c(ncn2[C@@H]2O[C@H](COP(=O)(O)OP(=O)(O)O)[C@@H](O)[C@H]2O)c(=O)[nH]1` [GDP], binding in data set [1] was put at a Kd of 91.7 µM.

B1: human MFN1 minimal GTPase domain (MGD), wild type (domain or fragment)
chain: MAEPVSPLKHFVLAKKAITAIFDQLLEFVTEGSHFVEATYKNPELDRIATEDDLVEMQGYKDKLSIIGEVLSRRHMKVAFFGRTSSGKSSVINAMLWDKVLPSGIGHITNCFLSVEGTDGDKAYLMTEGSDEKKSVKTVNQLAHALHMDKDLKAGCLVRVFWPKAKCALLRDDLVLVDSPGTDVTTELDSWIDKFCLDADVFVLVANSESTLMNTEKHFFHKVNERLSKPNIFILNNRWDASASEPEYMEDVRRQHMERCLHFLVEELKVVNALEAQNRIFFVSAKEVLSARKQKAQGMPESGVALAEGFHARLQEFQNFEQIFEECISQSAVKTKFEQHTIRAKQILATVKNIMDSVNLAAEDGSGSGSGGSEIARLPKEIDQLEKIQNNSKLLRNKAVQLENELENFTKQFLPSSNEES
On to B1, for which the “stoichiometry N” value in data set [2] was found to be 2.
